# Data taken from patent publication US20230339851A1, “CXCR6 SULFONAMIDE COMPOUNDS” (CHEMOCENTRYX, INC., priority 2022, published 2023).
# Molecular target: T1, human CXCR6 (Homo sapiens, UniProt O00574)
# T1 construct: expressed in transfected cells
# Assay: Radioligand Binding Assay (125I-CXCL16 displacement)
# Conditions: L1.2 cells stably transfected with human CXCR6 cDNA, 0.1 nM 125I-CXCL16, 4° C., three-hour incubation; read-out: Potency (IC50)
# Method in brief: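 L1.2 cells stably expressing human CXCR6 incubated 3 h at 4 °C in HBSS/0.1% BSA with 0.1 nM 125I-CXCL16 and graded compound concentrations. Bound radioactivity collected by filtration and counted; IC50 from 3-parameter nonlinear regression.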
# T1 sequence (O00574 whole entry): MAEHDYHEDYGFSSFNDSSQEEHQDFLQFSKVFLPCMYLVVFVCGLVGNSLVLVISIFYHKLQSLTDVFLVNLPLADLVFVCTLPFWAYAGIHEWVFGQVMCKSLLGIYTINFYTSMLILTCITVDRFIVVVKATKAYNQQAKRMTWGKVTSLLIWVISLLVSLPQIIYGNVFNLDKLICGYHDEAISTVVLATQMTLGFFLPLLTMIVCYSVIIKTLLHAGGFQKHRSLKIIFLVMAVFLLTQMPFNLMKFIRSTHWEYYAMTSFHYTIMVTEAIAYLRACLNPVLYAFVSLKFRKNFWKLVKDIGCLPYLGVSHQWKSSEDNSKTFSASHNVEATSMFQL
row,IC50 [nM],SMILES
1,≤ 200,CCOc1cc(NC(=O)[C@@H](CO)C(C)C)ccc1S(=O)(=O)Nc1cccc(C2CC2)c1 [Example 1.082]
2,2000 to 20000,COc1cc(NC(=O)CC2CCCCCC2)ccc1S(=O)(=O)Nc1cccc(C(F)(F)F)c1 [Example 1.419]
3,750 to 2000,CCOc1cc(NC(=O)[C@@H](CO)c2ccccc2)ccc1S(=O)(=O)Nc1ccc(C(F)(F)F)cc1 [Example 1.295]
4,2000 to 20000,CCOc1cc(NC(=O)C2CCCNC2)ccc1S(=O)(=O)Nc1cccc(OC(F)(F)F)c1 (stereo not shown) [Example 1.030]
5,750 to 2000,Cc1cc(NC(=O)c2cnco2)ccc1S(=O)(=O)Nc1cccc(C(F)(F)F)c1 [Example 1.252]
6,200 to 750,COc1cc(NC(=O)[C@@H](CO)C(C)C)ccc1S(=O)(=O)Nc1ccc(C)c(C(F)(F)F)c1 [Example 1.495]
7,≤ 200,CCCc1cc(NC(=O)[C@@H](CO)C2CC2)ccc1S(=O)(=O)Nc1cccc(OC(F)(F)F)c1 [Example 1.099]
8,200 to 750,CCOc1cc(NC(=O)[C@@H](CO)C(C)C)ccc1S(=O)(=O)Nc1ccc(C)c(F)c1 [Example 1.213]
9,≤ 200,CCOc1cc(NC(=O)[C@@H](O)c2ccccc2Cl)ccc1S(=O)(=O)Nc1cccc(OC(F)(F)F)c1 [Example 1.276]
10,≤ 200,CCOc1cc(NC(=O)C(CO)c2ccccc2)ccc1S(=O)(=O)Nc1cccc(OC(F)(F)F)c1 (stereo not shown) [Example 1.473]
11,≤ 200,CCc1cc(NC(=O)[C@@H](CO)C(C)C)ccc1S(=O)(=O)Nc1cccc(OC(F)(F)F)c1 [Example 1.201]
12,≤ 200,CCOc1cc(NC(=O)[C@@H](NC(C)=O)C(C)C)ccc1S(=O)(=O)Nc1ccc(C)c(OC(F)(F)F)c1 [Example 1.275]
13,750 to 2000,CCOc1cc(NC(=O)[C@@H](NC(=O)OC(C)(C)C)C(C)O)ccc1S(=O)(=O)Nc1cccc(OC(F)(F)F)c1 (stereo partly shown) [Example 1.020]
14,200 to 750,CC(C)[C@H](O)C(=O)Nc1ccc(S(=O)(=O)Nc2cccc(OC(F)(F)F)c2)c(C#N)c1 [Example 1.165]
15,2000 to 20000,Cc1cc(NC(=O)c2ccn(C)n2)ccc1S(=O)(=O)Nc1cccc(C(F)(F)F)c1 [Example 1.001]
16,≤ 200,CCOc1cc(NC(=O)c2ccccc2)ccc1S(=O)(=O)Nc1cccc(OC(F)(F)F)c1 [Example 1.073]
17,200 to 750,COc1cc(NC(=O)c2ccnn2C)ccc1S(=O)(=O)Nc1cccc(C(C)(C)C)c1 [Example 1.231]
18,≤ 200,CCOc1cc(NC(=O)C2CC=CC[C@@H]2O)ccc1S(=O)(=O)Nc1ccc(C)c(OC(F)(F)F)c1 (stereo partly shown) [Example 1.172]
19,≤ 200,CCOc1cc(NC(=O)C(O)C2CC2)ccc1S(=O)(=O)Nc1cccc(OC(F)(F)F)c1 (stereo not shown) [Example 1.198]
20,≤ 200,CCOc1cc(NC(=O)[C@@H](O)C(C)C)ccc1S(=O)(=O)Nc1ccc(Cl)c(Cl)c1 [Example 1.375]
21,2000 to 20000,Cc1cc(NC(=O)c2ccccc2F)ccc1S(=O)(=O)Nc1cccc(C(F)(F)F)c1 [Example 1.070]
22,≤ 200,CCOc1cc(NC(=O)[C@@H](N)C(C)CC)ccc1S(=O)(=O)Nc1cccc(OC(F)(F)F)c1 (stereo partly shown) [Example 1.243]
23,200 to 750,CCOc1cc(NC(=O)[C@H]2CCOC[C@H]2O)ccc1S(=O)(=O)Nc1cccc(OC(F)(F)F)c1 (racemic) [Example 1.107]
24,≤ 200,COc1cc(NC(=O)c2ccns2)ccc1S(=O)(=O)Nc1cccc(C(F)(F)F)c1 [Example 1.115]

row,IC50 [nM],SMILES
1,≤ 200,CCOc1cc(NC(=O)[C@@H](NC(C)=O)C(C)C)ccc1S(=O)(=O)Nc1ccc(C)c(C(F)(F)F)c1 [Example 1.543]
2,200 to 750,COc1cc(NC(=O)c2ccnn2C)ccc1S(=O)(=O)Nc1cccc(C(F)(F)F)c1 [Example 1.153]
3,200 to 750,CCOc1cc(NC(=O)C(O)c2ccc(C)cc2)ccc1S(=O)(=O)Nc1cccc(OC(F)(F)F)c1 (stereo not shown) [Example 1.466]
4,≤ 200,CCOc1cc(NC(=O)[C@@H](CO)c2ccccc2)ccc1S(=O)(=O)Nc1ccc(C)c(C(F)(F)F)c1 [Example 1.425]
5,≤ 200,CCOc1cc(NC(=O)[C@@H](N)c2ccccc2)ccc1S(=O)(=O)Nc1ccc(Cl)c(OC(F)(F)F)c1 [Example 1.234]
6,200 to 750,CCOc1cc(NC(=O)[C@@H](O)C(C)C)ccc1S(=O)(=O)Nc1cccc(OC(C)C)c1 [Example 1.074]
7,2000 to 20000,COc1cc(NC(=O)C2CC3C=CC2C3)ccc1S(=O)(=O)Nc1cccc(C(F)(F)F)c1 (stereo not shown) [Example 1.077]
8,200 to 750,CCOc1cc(NC(=O)[C@@H](CO)c2ccccc2)ccc1S(=O)(=O)Nc1ccc(Cl)c(C(F)(F)F)c1 [Example 1.178]
9,≤ 200,CCOc1cc(NC(=O)[C@H]2CCOC[C@H]2CC)ccc1S(=O)(=O)Nc1cccc(OC(F)(F)F)c1 (racemic) [Example 1.233]
10,2000 to 20000,CC(C)Oc1cc(NC(=O)c2ccnn2C)ccc1S(=O)(=O)Nc1cccc(C(F)(F)F)c1 [Example 1.317]
11,2000 to 20000,CCOc1cc(NC(=O)[C@@H](CO)c2ccccc2)ccc1S(=O)(=O)Nc1cccc(Cl)c1C(F)(F)F [Example 1.350]
12,≤ 200,CCC(C)[C@H](O)C(=O)Nc1ccc(S(=O)(=O)Nc2cccc(OC(F)(F)F)c2)c(OC)c1 (stereo partly shown) [Example 1.391]
13,2000 to 20000,CCOc1cc(NC(=O)[C@@H](CO)c2ccccc2)ccc1S(=O)(=O)Nc1ccc(CO)c(C(F)(F)F)c1 [Example 1.388]
14,200 to 750,CCOc1cc(NC(=O)CC(C)O)ccc1S(=O)(=O)Nc1cccc(OC(F)(F)F)c1 (stereo not shown) [Example 1.253]
15,≤ 200,CCOc1cc(NC(=O)c2cn[nH]c(=O)c2)ccc1S(=O)(=O)Nc1cccc(OC(F)(F)F)c1 [Example 1.529]
16,200 to 750,CCOc1cc(NS(=O)(=O)c2ccc(NC(=O)[C@@H](CO)C(C)C)cc2OCC)ccc1Cl [Example 1.488]
17,2000 to 20000,Cc1cc(NC(=O)c2cscn2)ccc1S(=O)(=O)Nc1cccc(C(F)(F)F)c1 [Example 1.359]
18,≤ 200,CCOc1cc(NC(=O)[C@@H](NC(=O)C(F)(F)F)C(C)C)ccc1S(=O)(=O)Nc1cccc(OC(F)(F)F)c1 [Example 1.503]
19,200 to 750,CCOc1cc(NC(=O)[C@@H](O)C(C)C)ccc1S(=O)(=O)Nc1ccc(C)c(F)c1 [Example 1.195]
20,750 to 2000,COc1cc(NC(=O)c2ccnn2C)ccc1S(=O)(=O)Nc1ccc(C#N)c(OC(F)(F)F)c1 [Example 1.015]
21,2000 to 20000,CCOc1cc(NC(=O)[C@@H](CO)c2ccccc2)ccc1S(=O)(=O)Nc1ccc2c(c1)OC(F)(F)O2 [Example 1.121]
22,200 to 750,Cc1cc(NC(=O)c2ccno2)ccc1S(=O)(=O)Nc1cccc(C(F)(F)F)c1 [Example 1.067]
23,2000 to 20000,COc1c(S(=O)(=O)Nc2cccc(OC(F)(F)F)c2)ccc(NC(=O)c2ccnn2C)c1C [Example 1.203]
24,≤ 200,CCOc1cc(NC(=O)c2ccnn2C)ccc1S(=O)(=O)Nc1cccc(OC(F)(F)F)c1 [Example 1.157]

row,IC50 [nM],SMILES
1,200 to 750,COc1cc(NC(=O)C2CC3CCC2O3)ccc1S(=O)(=O)Nc1cccc(OC(F)(F)F)c1 (stereo not shown) [Example 1.360]
2,200 to 750,CCOc1cc(NC(=O)C2CCC[C@H]2O)ccc1S(=O)(=O)Nc1cccc(OC(F)(F)F)c1 (stereo partly shown) [Example 1.468]
3,≤ 200,CCOc1cc(NC(=O)[C@@H](O)C(C)CC)ccc1S(=O)(=O)Nc1cccc(OC(F)(F)F)c1 (stereo partly shown) [Example 1.492]
4,2000 to 20000,Cc1cc(NC(=O)c2nccn2C)ccc1S(=O)(=O)Nc1cccc(C(F)(F)F)c1 [Example 1.116]
5,≤ 200,CCOc1cc(NC(=O)[C@@H](CO)C(C)C)ccc1S(=O)(=O)Nc1cccc(C(F)(F)F)c1 [Example 1.062]
6,200 to 750,CCOc1cc(NC(=O)c2ccnc(OC)c2)ccc1S(=O)(=O)Nc1cccc(OC(F)(F)F)c1 [Example 1.076]
7,2000 to 20000,CCOc1cc(NC(=O)CC(O)CC2CCOCC2)ccc1S(=O)(=O)Nc1cccc(OC(F)(F)F)c1 (stereo not shown) [Example 1.131]
8,≤ 200,CCOc1cc(NC(=O)[C@@H](O)C(C)C)ccc1S(=O)(=O)Nc1cccc(C(C)C)c1 [Example 1.263]
9,≤ 200,CCOc1cc(NC(=O)[C@@H](N)CC(C)C)ccc1S(=O)(=O)Nc1cccc(OC(F)(F)F)c1 [Example 1.109]
10,200 to 750,CCOc1cc(NS(=O)(=O)c2ccc(NC(=O)[C@@H](O)C(C)C)cc2OCC)ccc1Cl [Example 1.210]
11,≤ 200,CCOc1cc(NC(=O)[C@@H](O)c2ccccc2)ccc1S(=O)(=O)Nc1ccc(F)c(OC(F)(F)F)c1 [Example 1.220]
12,≤ 200,CCOc1cc(NC(=O)[C@H](N)C(C)C)ccc1S(=O)(=O)Nc1cccc(OC(F)(F)F)c1 [Example 1.158]
13,≤ 200,CCOc1cc(NC(=O)c2ccc[n+]([O-])c2)ccc1S(=O)(=O)Nc1cccc(OC(F)(F)F)c1 [Example 1.510]
14,750 to 2000,COc1cc(NC(=O)C2C3CCC(C3)N2C(=O)OC(C)(C)C)ccc1S(=O)(=O)Nc1cccc(C(F)(F)F)c1 (stereo not shown) [Example 1.506]
15,≤ 200,CCOc1cc(NC(=O)[C@H]2CCOC[C@@H]2C)ccc1S(=O)(=O)Nc1cccc(OC(F)(F)F)c1 (racemic) [Example 1.477]
16,≤ 200,CCOc1cc(NC(=O)[C@@H](N)C2CC2)ccc1S(=O)(=O)Nc1cccc(OC(F)(F)F)c1 [Example 1.393]
17,2000 to 20000,CC(=O)Nc1ccc(S(=O)(=O)Nc2cccc(C(F)(F)F)c2)c(OC(F)(F)F)c1 [Example 1.264]
18,≤ 200,COc1cc(NC(=O)c2ccnn2C)ccc1S(=O)(=O)Nc1ccc(F)c(OC(F)(F)F)c1 [Example 1.409]
19,200 to 750,CCOc1cc(NC(=O)C2CCO[C@@H]2C)ccc1S(=O)(=O)Nc1cccc(OC(F)(F)F)c1 (mixture of isomers) [Example 1.137]
20,200 to 750,CCOc1cc(NC(=O)C(C)O)ccc1S(=O)(=O)Nc1cccc(OC(F)(F)F)c1 (stereo not shown) [Example 1.532]
21,200 to 750,COc1cc(NC(=O)c2cc(C)nn2C)ccc1S(=O)(=O)Nc1cccc(C(F)(F)F)c1 [Example 1.254]
22,≤ 200,CCOc1cc(NC(=O)[C@H]2CC=CC[C@@H]2C(=O)O)ccc1S(=O)(=O)Nc1cccc(OC(F)(F)F)c1 [Example 1.358]
